The source of these data is ChEMBL document CHEMBL1144954, “Synthesis and preliminary evaluation of (R,R)(S,S) 5-(2-(2-[4-(2-[(18)F]fluoroethoxy)phenyl]-1-methylethylamino)-1-hydroxyethyl)-benzene-1,3-diol ([(18)F]FEFE) for the in vivo visualisation and quantification of the beta2-adrenergic receptor status in lung” (Bioorg Med Chem Lett, 2003).

Molecules are shown by their SMILES.

Data set [1] in a line: Distribution in blood expressed as [18F]- organ uptake in % of injected activity/gram. In kind it is ADME, tissue-based, Cavia porcellus. As to conditions: guinea pig.
The nature of data set [2]: Distribution in brain expressed as [18F]- organ uptake in % of injected activity/gram. In kind it is ADME, tissue-based, Cavia porcellus. As to conditions: guinea pig.
Data set [3] in a line: Distribution in heart expressed as [18F]- organ uptake in % of injected activity/gram. In kind it is ADME, tissue-based, Cavia porcellus. As to conditions: guinea pig.
The nature of data set [4]: Distribution in intestine expressed as [18F]- organ uptake in % of injected activity/gram. In kind it is ADME, tissue-based, Cavia porcellus. As to conditions: guinea pig.
The nature of data set [5]: Distribution in kidney expressed as [18F]- organ uptake in % of injected activity/gram. In kind it is ADME, tissue-based, Cavia porcellus. As to conditions: guinea pig.
The nature of data set [6]: Distribution in liver expressed as [18F]- organ uptake in % of injected activity/gram. In kind it is ADME, tissue-based, Cavia porcellus. As to conditions: guinea pig.
Data set [7] in a line: Distribution in lung expressed as [18F]- organ uptake in % of injected activity/gram. In kind it is ADME, tissue-based, Cavia porcellus. As to conditions: guinea pig.
The target in data set [8] is Beta-2 adrenergic receptor (Cavia porcellus, UniProt Q8K4Z4). Put plainly: In vitro inhibitory concentration Beta-2 adrenergic receptor in Guinea pig trachea.
Sequence of Beta-2 adrenergic receptor (Q8K4Z4 whole entry): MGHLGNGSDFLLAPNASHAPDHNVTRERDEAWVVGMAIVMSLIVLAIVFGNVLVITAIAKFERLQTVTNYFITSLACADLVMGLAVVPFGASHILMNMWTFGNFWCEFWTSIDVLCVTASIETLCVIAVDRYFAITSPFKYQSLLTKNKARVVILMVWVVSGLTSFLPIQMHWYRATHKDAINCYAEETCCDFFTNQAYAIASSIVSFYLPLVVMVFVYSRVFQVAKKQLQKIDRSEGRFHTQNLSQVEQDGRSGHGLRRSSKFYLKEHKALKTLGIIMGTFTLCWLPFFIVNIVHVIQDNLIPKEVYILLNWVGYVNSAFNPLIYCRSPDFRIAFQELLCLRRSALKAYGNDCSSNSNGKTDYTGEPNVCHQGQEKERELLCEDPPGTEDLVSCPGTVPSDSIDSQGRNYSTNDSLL
The nature of data set [9]: Half-life was measured. In kind it is ADME, Cavia porcellus. As to conditions: guinea pig.
Data set [10] in a line: Distribution in spleen expressed as [18F]- organ uptake in % of injected activity/gram. As to conditions: guinea pig. In kind it is ADME, tissue-based, Cavia porcellus.

Usually IC50 stands for the point on the concentration scale where inhibition reaches its midpoint. Higher therefore signals weaker potency. The term half-life denotes the time needed for the level to fall by half in the phase considered. High values mean slow loss, low ones fast loss. Turning to `CC(Cc1ccc(OCCF)cc1)NCC(O)c1cc(O)cc(O)c1` (stereo not given), the ID/g was 0.22% in [1]; 0.02% in data set [2]; 0.49% in data set [3]; 0.77% in [4]; 0.7% in data set [5]; 0.95% in data set [6]. The ID/g is recorded as 1.16% in data set [7] and 0.84% in data set [10]. This compound also came in with an IC50 in data set [8] of 60 nM. The compound also gave a half-life in [9] of 1.83 h.
